Read-outs that look alike come from different tables or passages of the source.
Columns and labels:
[1] = Storage stability of dioxetane formulations measured by chemiluminescent enzyme assay; type: physicochemical; conditions: for % of Dioxetane Remaining: 0.5 mM dioxetane formulation pH 10, temperature not given (FIG. 5: 25° C.)
Description: Storage stability is related to the rate of decomposition of the dioxetane due to spontaneous reaction and is an intrinsic property. Decomposition of triggerable dioxetanes can also be induced by the presence of trace quantities of agents which catalyze the removal of a protecting group and thus initiate the decomposition. Storage stability of a dioxetane can be assessed by measuring the quantity of dioxetane present in a known sample at periodic intervals. The measurement can take any form known which measures a property relatable to the quantity of dioxetane. Techniques such as spectrophotometry, NMR spectrometry and the like are exemplary. A convenient means is to measure the amount of light produced by reacting a known quantity of dioxetane with a triggering agent under a standard set of conditions. A decrease in the amount or intensity of light emitted signals a loss of dioxetane compound.
A fluoro-substituted analog of dioxetane 1, identified as 3, a chloro-substituted analog 4 and a methyl-substituted analog 5 have been prepared and their storage stability evaluated over several weeks. Storage stability of a solution of 1 was measured for comparison. All solutions were prepared with the same composition, differing only in the identity of the dioxetane. Stability was evaluated by chemiluminescent enzyme assay with a fixed volume of test solution and fixed limiting amount of alkaline phosphatase and measuring the plateau light intensity at 25° C.
Formulations comprising 0.1 mg/mL Enhancer A, 0.88 mM Mg^+2 , 0.2 M 2-amino-2-methyl-1-propanol, pH 10, 0.1% Triton X-100 and 0.5 mM dioxetane 1, 3, 4 and 5, respectively, were prepared and stored in opaque polyethylene bottles at 4° C., 25° C. and 40° C. Twenty four 100 μL aliquots from each bottle were pipetted into the wells of a 96 well plate and the solutions incubated at 37° C. Into each well 10 μL solutions containing 8×10^−17 moles of AP were injected and light intensity integrated over five hours. Data are the average of all 24 wells. The experiment was repeated at the indicated time intervals for each dioxetane. The results in FIG. 5 show the comparative stability of the three formulations at 25° C.

alkaline phosphatase = test: Performance of detection reagent in assays for AP in the capsule chemistry test system; type: biochemical; conditions: fluorescein-labeled alkaline phosphatase conjugate captured onto magnetic particles
Method: (§1) The experiments described below were performed on a prototype capsule chemistry analysis system essentially as described by Kumar et al in U.S. Pat. No. 5,399,497, with the detection system configured to measure light emission (luminescence). The method and apparatus comprises feeding a stream of fluid segments through a Teflon tube, where the tube has an isolating layer of fluorocarbon oil on the inner surface. Sample and reagents are aspirated into this tube, and the resulting liquid segments are moved through the tube. Separation steps and washing steps which are required by heterogeneous immunoassay methods were facilitated by means of magnets, which transferred magnetic particles from one aqueous segment to another. The detection system was comprised of a photon counter and a fiber optic read head, in which the fibers were radially arranged around the Teflon tube to maximize the efficiency of light collection.
A detection reagent incorporating dioxetane 3 was evaluated in a test system as described in Example 7. The test material was a fluorescein-labeled alkaline phosphatase conjugate which was captured onto the magnetic particles.

[2] = Enhancement of luminescent signal of a reagent based on dioxetane 1 by enhancers and fluorescers; conditions: for Enhancement Factor: 1 mg/mL Enhancer A; for Factor of increase of luminescent signal: reagent based on dioxetane 1
Description: As part of the optimization of a reagent based on dioxetane 1, a number of enhancer materials was examined. At pH 9.6, Enhancer A (1-trioctylphosphoniummethyl-4-tributylphosphoniummethylbenzene dichloride) increased the luminescent signal by a factor of 6.2, and Enhancer B (poly(vinylbenzyltributylphosphonium chloride)) increased the signal by a factor of 19.7. At pH 10.0, Enhancer A increased the signal by a factor of 4.8, and Enhancer B increased the signal by a factor of 18.9.
Tables 2 and 3 show the extent of enhancement by pyranine and fluorescein, respectively, in the presence of 1 mg/mL of Enhancer A.

[3] = Reagent carryover in capsule chemistry analysis system (TECHNICON IMMUNO 1 TSH method, luminescence detection); conditions: R3 reagent with 0.2 mM CSPD; 3 mM pyranine omitted from test N only
Method: as §1, with “Separation steps and washing steps which are required by heterogeneous immunoassay methods were facilitated by means of magnets, which transferred magnetic particles from one aqueous segment to another.” left out
The TECHNICON IMMUNO 1® TSH method (Bayer Corporation, Tarrytown, N.Y., USA) was used as a representative immunoassay method for the testing of luminogenic reagents. […] The particles were then exposed to the luminogenic reagent, which contained a substrate for ALP, and luminescence was measured.
R1 (10.4 μl of serum-based solution containing fluorescein-labeled antibody to TSH), R2 (10.4 μl of serum-based solution containing antibody to TSH conjugated with ALP) and S (7.2 μl of serum sample) were aspirated into the second segment. […] The fifth segment was R3, of the composition described above, with the key elements being the luminogenic substrate and the luminescence enhancer. […]

[4] = aqueous solutions, 25° C., four weeks

## [4-(3,3-biscarboxy)-3-fluoropropoxy)-4-(3-phosphoryloxyphenyl)]spiro[1,2-dioxetane-3,2′-tricyclo [3.3.1.1^3,7]decane], tetrasodium salt [Dioxetane 3]
[1]; [4]
  Decomposition on storage (in words): essentially no decomposition
Alkaline phosphatase
  Assay performance (sensitivity, dynamic range, precision) in words: sensitivity, dynamic range and precision comparable to the results using dioxetane 1

## O=S(=O)([O-])c1cc(O)c2ccc3c(S(=O)(=O)[O-])cc(S(=O)(=O)[O-])c4ccc1c2c34.[Na+].[Na+].[Na+] [Pyranine]
[2]; 0.01 mM fluorescer
  Enhancement Factor: 3.7
[2]; 0.02 mM fluorescer
  Enhancement Factor: 7.3
[2]; 0.03 mM fluorescer
  Enhancement Factor: 9.8
[2]; 0.04 mM fluorescer
  Enhancement Factor: 12.2
[2]; 0.05 mM fluorescer
  Enhancement Factor: 13.7
[2]; fluorescer 3 mM, without Enhancer A
  Enhancement by fluorescer alone: about ten-fold
[3]
  Factor by which signal in test N was lower when the fluorescent enhancer was omitted: approximately 10

## [4-(3,3-biscarboxy)-3-chloropropoxy)-4-(3-phosphoryloxyphenyl)]spiro[1,2-dioxetane-3,2′-tricyclo [3.3.1.1^3,7]decane], tetrasodium salt [Dioxetane 4]
[1]
  Storage stability compared with other dioxetanes (in words): worse than that of 1

## O=C([O-])C(CCOC1(c2cccc(OP(=O)([O-])[O-])c2)OOC12C1CC3CC(C1)CC2C3)C(=O)[O-].[Na+].[Na+].[Na+].[Na+] (centres unmarked) [Dioxetane 1]
[1]; 0 wks
  % of Dioxetane Remaining: 100%
[1]; 1 wk
  % of Dioxetane Remaining: 94.8%
[1]; 2 wks
  % of Dioxetane Remaining: 91.1%
[1]; 3 wks
  % of Dioxetane Remaining: 87.5%
[1]; 4 wks
  % of Dioxetane Remaining: 84.1%
[1]; 5 wks
  % of Dioxetane Remaining: 81.8%
[1]; 6 wks
  % of Dioxetane Remaining: 80.7%
[1]; 9 wks
  % of Dioxetane Remaining: 76.5%
[1]; alkaline buffer, 25° C., two weeks
  Decomposition on storage (in words): significant decomposition
[1]; aqueous buffer solutions, 25° C.
  Storage stability compared with other dioxetanes (in words): significantly less stable than a related compound, Lumigen PPD

## CCCCCCCC[P+](CCCCCCCC)(CCCCCCCC)Cc1ccc(C[P+](CCCC)(CCCC)CCCC)cc1.[Cl-].[Cl-] [Enhancer A, 1-trioctylphosphoniummethyl-4-tributylphosphoniummethylbenzene dichloride]
[2]; pH 9.6
  Factor of increase of luminescent signal: 6.2
[2]; pH 10.0
  Factor of increase of luminescent signal: 4.8

## [4-(3,3-biscarboxybutoxy)-4-(3-phosphoryloxyphenyl)]spiro[1,2-dioxetane-3,2′-tricyclo[3.3.1.1^3,7]-decane], tetrasodium salt [Dioxetane 5]
[1]; [4]
  Decomposition on storage (in words): essentially no decomposition

From patent publication US6410751B1, “Water soluble tri-substituted 1, 2-dioxetane compounds having increased storage stability, synthetic processes and intermediates” (Lumigen, Inc., priority 1995, dated 2002)
